In patent US9480751B2, “Albumin binding probes and drug conjugates thereof” (priority 2011, dated 2016):

Assays:
[1] = said to have; cited from earlier work
[2] = Hydrophobic chromatography (analytical HPLC, chromolite RP-18e) as estimate of overall lipophilicity; details: chromolite R.P-18e column, mixture of 40 μg each, FIG. 3
Protocol: Analytical reverse phase-HPLC was performed using a pre-packed Chromolith™ Performance RP-18e column (4.6×100 mm, Merck, Darmstadt, Germany). The column was eluted with a binary gradient of 10-100% solution B over 10 min with a flow rate of 3 ml/min (solution A was 0.1% trifluoroacetic acid in H2O and solution B was 0.1% trifluoroacetic acid in acetonitrile:H2O; 3:1, v/v).
This approach of hydrophobic chromatography yields an estimate of the overall lipophilicity of peptide analogs (Shechter et al., 2010).

CD1-mice = experiment: Blood glucose levels in CD1 mice after a single administration; assay type: in vivo
Protocol: (§1) Each point is the arithmetic mean of n=6 mice±SE.
as §1
Blood glucose levels were determined at varying time points following administration of insulin, exendin-4, and their derivatives in blood aliquots taken from the tail vein. Glucose analyzer (Beckman Instruments Fullerton, Calif.) was used. Groups consisted of six mice each. Data are presented as means±SE.

[3] = background statement; cited from earlier work
[4] = single subcutaneous 0.25 nmole/mouse, CD1 mice

Substance | Duration of action [1] | Rt value, hydrophobic chromatography (estimate of overall lipophilicity) [2] | Blood glucose level 48 hrs after administration (last time point) (CD1-mice; intravenous 0.25 nmole/mouse) | t1/2 value of glucose-lowering (CD1-mice; single intravenous 0.25 nmole/mouse, CD1 mice) | Glucose level reached after administration (CD1-mice; [4]) | Period over which glucose remained at low level (CD1-mice; [4]) | t1/2 value of glucose-lowering (CD1-mice; [4]) | Glucose level reached after administration (CD1-mice; single subcutaneous 0.25 nmole/mouse, CD1 mice, listed as HO3S—(CH2)15—CO-exendin-4) | t1/2 of glucose reduction (CD1-mice; subcutaneous and intravenous administration, stated together) | t1/2 of glucose-lowering effect (CD1-mice; single subcutaneous 0.69 nmole/mouse, CD1 mice) | t1/2 in plasma [3]
N^εB29-tetradecanoyl des(B30) insulin [insulin-detemir] | up to 24 hours | 9.107 min |  |  |  |  |  |  |  |  | 
exendin-4-CO—(CH2)15—SO3^− |  |  | still low | 28 ± 2 h | 70 ± 5 mg/dL | ~24 h | 32 ± 2 h | 70+5 mg/dl | 28 to 32 h |  | 
insulin: Human (Zn^2+-free) insulin |  | 7.312 min |  |  |  |  |  |  |  | 2 ± 0.2 h | 5 to 6 min
